# In patent US7786141B2 (Vertex Pharmaceuticals Incorporated, priority 2004, dated 2010):
# How the values were obtained:
# M1 muscarinic receptor = target: T1, M1 muscarinic receptor (Homo sapiens, UniProt P11229); assay: Functional mobilization of intracellular calcium (FLIPR) in M1-CHO cells; format: cell-based; conditions: Table 4; for Emax: 100% efficacy is the maximum response obtained with the Carbachol control; for M1 Activity: M1 receptor, calcium mobilization (FLIPR)
# T1 construct: expressed in transfected cells; host or cells: CHO (M1-CHO)
# T1 sequence (P11229 1-460): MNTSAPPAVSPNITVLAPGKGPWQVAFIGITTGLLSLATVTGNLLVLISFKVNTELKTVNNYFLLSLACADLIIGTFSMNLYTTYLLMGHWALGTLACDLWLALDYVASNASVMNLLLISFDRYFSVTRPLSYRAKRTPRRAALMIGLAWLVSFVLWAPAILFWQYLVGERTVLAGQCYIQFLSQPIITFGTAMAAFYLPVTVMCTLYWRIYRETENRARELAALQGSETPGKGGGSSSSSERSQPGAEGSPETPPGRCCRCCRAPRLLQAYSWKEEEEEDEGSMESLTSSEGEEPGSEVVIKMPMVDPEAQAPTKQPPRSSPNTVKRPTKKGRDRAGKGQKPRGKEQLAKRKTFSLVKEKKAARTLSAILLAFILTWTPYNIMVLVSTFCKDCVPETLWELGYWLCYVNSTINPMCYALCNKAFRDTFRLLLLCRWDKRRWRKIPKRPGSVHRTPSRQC
# Method in brief: (§1)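 Steps: seed M1- or M4-CHO cells 18-24 hrs ahead; load calcium dye with 1 mM probenecid; add test compound (0.5% DMSO final), either alone for agonism or 15 min before EC80 carbachol for inhibition; record FLIPR fluorescence for 60 sec.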
# M4 muscarinic receptor = target: T2, M4 muscarinic receptor (Homo sapiens, UniProt P08173); assay: Functional mobilization of intracellular calcium (FLIPR) in M4-CHO cells; format: cell-based; conditions: Table 4; for Emax: 100% efficacy is the maximum response obtained with the Carbachol control; for M4 Activity: M4 receptor, calcium mobilization (FLIPR)
# T2 construct: expressed in transfected cells; host or cells: CHO (M4-CHO)
# T2 sequence (P08173 1-479): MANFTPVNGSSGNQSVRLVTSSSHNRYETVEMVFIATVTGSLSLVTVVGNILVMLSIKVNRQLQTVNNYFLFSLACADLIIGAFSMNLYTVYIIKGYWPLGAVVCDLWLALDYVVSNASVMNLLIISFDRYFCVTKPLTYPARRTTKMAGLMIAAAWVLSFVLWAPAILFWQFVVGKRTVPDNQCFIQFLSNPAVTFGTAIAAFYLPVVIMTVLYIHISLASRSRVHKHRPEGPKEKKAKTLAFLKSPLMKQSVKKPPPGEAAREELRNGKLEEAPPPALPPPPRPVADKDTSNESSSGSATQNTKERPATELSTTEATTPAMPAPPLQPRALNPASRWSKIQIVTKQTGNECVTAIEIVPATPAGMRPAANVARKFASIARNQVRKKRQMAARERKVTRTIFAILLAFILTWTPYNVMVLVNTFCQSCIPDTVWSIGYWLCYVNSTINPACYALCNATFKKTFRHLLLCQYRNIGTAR
# Method in brief: as §1
compound,measurement,setting,value
CC(=O)N1CC2(CCN(C[C@H]3CCN(c4cnccn4)C3)CC2)c2c(C)cccc21 [compound 860],Emax,M1 muscarinic receptor,25 to 100%
same,M1 Activity,M1 muscarinic receptor,xxx (activity was measured to be less than 2.0 μM)
same,Emax,M4 muscarinic receptor,25 to 100%
same,M4 Activity,M4 muscarinic receptor,xxx (activity was measured to be less than 2.0 μM)
CC(=O)N[C@H]1CCC2(CCN([C@H]3CC4CC[C@H](C4)C3)CC2)c2ccccc21 [compound 861],Emax,M1 muscarinic receptor,25 to 100%
same,M1 Activity,M1 muscarinic receptor,xxx (activity was measured to be less than 2.0 μM)
same,Emax,M4 muscarinic receptor,25 to 100%
same,M4 Activity,M4 muscarinic receptor,xxx (activity was measured to be less than 2.0 μM)
CCOC(=O)N1CCC(N2CCC3(CC2)CN(C(C)=O)c2ccc(C#N)cc23)CC1 [compound 862],Emax,M1 muscarinic receptor,25 to 100%
same,M1 Activity,M1 muscarinic receptor,xxx (activity was measured to be less than 2.0 μM)
same,Emax,M4 muscarinic receptor,25 to 100%
same,M4 Activity,M4 muscarinic receptor,xxx (activity was measured to be less than 2.0 μM)
Cc1ccc2c(c1)C(=O)CC21CCN(C2CCCCCC2)CC1 [compound 863],Emax,M1 muscarinic receptor,25 to 100%
same,M1 Activity,M1 muscarinic receptor,x (activity was measured to be greater than 5.0 μM)
same,Emax,M4 muscarinic receptor,25 to 100%
same,M4 Activity,M4 muscarinic receptor,xx (activity was measured to be between 2.0 μM and 5.0 μM)
CC(=O)N1CC2(CCN(C[C@H]3CCN(C(=O)OC(C)C)C3)CC2)c2ccccc21 [compound 864],Emax,M1 muscarinic receptor,< 25%
same,M1 Activity,M1 muscarinic receptor,x (activity was measured to be greater than 5.0 μM)
same,Emax,M4 muscarinic receptor,< 25%
same,M4 Activity,M4 muscarinic receptor,x (activity was measured to be greater than 5.0 μM)
CCO/N=C1\CC2(CCN([C@@H]3C[C@@H]4CC[C@@H]3C4)CC2)c2cc(Cl)ccc21 [compound 865],Emax,M1 muscarinic receptor,25 to 100%
same,M1 Activity,M1 muscarinic receptor,xx (activity was measured to be between 2.0 μM and 5.0 μM)
same,Emax,M4 muscarinic receptor,25 to 100%
same,M4 Activity,M4 muscarinic receptor,xxx (activity was measured to be less than 2.0 μM)
CN(C)C(=O)N1CC2(CCN(C3CCN(c4cccc(F)c4)CC3)CC2)c2cc(F)ccc21 [compound 866],Emax,M1 muscarinic receptor,25 to 100%
same,M1 Activity,M1 muscarinic receptor,xx (activity was measured to be between 2.0 μM and 5.0 μM)
same,Emax,M4 muscarinic receptor,25 to 100%
same,M4 Activity,M4 muscarinic receptor,xxx (activity was measured to be less than 2.0 μM)
O=C(N[C@H]1CC2(CCN([C@@H]3C[C@@H]4CC[C@@H]3C4)CC2)c2ccccc21)c1ccoc1 [compound 868],Emax,M1 muscarinic receptor,< 25%
same,M1 Activity,M1 muscarinic receptor,x (activity was measured to be greater than 5.0 μM)
same,Emax,M4 muscarinic receptor,25 to 100%
same,M4 Activity,M4 muscarinic receptor,xxx (activity was measured to be less than 2.0 μM)
CCOC(=O)N1CCC(CN2CCC3(CC2)CN(C(C)=O)c2c(C)cc(C)cc23)CC1 [compound 869],Emax,M1 muscarinic receptor,25 to 100%
same,M1 Activity,M1 muscarinic receptor,xx (activity was measured to be between 2.0 μM and 5.0 μM)
same,Emax,M4 muscarinic receptor,25 to 100%
same,M4 Activity,M4 muscarinic receptor,xxx (activity was measured to be less than 2.0 μM)
CC(=O)N1CC2(CCN(C[C@H]3CCN(C(=O)OCC(F)F)C3)CC2)c2ccccc21 [compound 871],Emax,M1 muscarinic receptor,25 to 100%
same,M1 Activity,M1 muscarinic receptor,x (activity was measured to be greater than 5.0 μM)
same,Emax,M4 muscarinic receptor,25 to 100%
same,M4 Activity,M4 muscarinic receptor,xx (activity was measured to be between 2.0 μM and 5.0 μM)
CCOC(=O)N1CCC(N2CCC3(CC2)CN(C(C)=O)c2ccc(C(C)C)cc23)CC1 [compound 872],Emax,M1 muscarinic receptor,25 to 100%
same,M1 Activity,M1 muscarinic receptor,xxx (activity was measured to be less than 2.0 μM)
same,Emax,M4 muscarinic receptor,25 to 100%
same,M4 Activity,M4 muscarinic receptor,xxx (activity was measured to be less than 2.0 μM)
CC1=C(CCN2CCC3(CC2)C[C@H](NC(=O)C2CCCC2)c2ccccc23)C(C)(C)CCC1 [compound 873],Emax,M1 muscarinic receptor,< 25%
same,M1 Activity,M1 muscarinic receptor,x (activity was measured to be greater than 5.0 μM)
same,Emax,M4 muscarinic receptor,< 25%
same,M4 Activity,M4 muscarinic receptor,x (activity was measured to be greater than 5.0 μM)
CC(=O)NC1CCC2(CCN(CCC3CCCN(C(C)=O)C3)CC2)c2ccccc21 (stereo not shown) [compound 874],Emax,M1 muscarinic receptor,25 to 100%
same,M1 Activity,M1 muscarinic receptor,xx (activity was measured to be between 2.0 μM and 5.0 μM)
same,Emax,M4 muscarinic receptor,< 25%
same,M4 Activity,M4 muscarinic receptor,x (activity was measured to be greater than 5.0 μM)
COC(=O)N1CCC(CCN2CCC3(CCC(NC(C)=O)c4ccccc43)CC2)CC1 (stereo not shown) [compound 875],Emax,M1 muscarinic receptor,25 to 100%
same,M1 Activity,M1 muscarinic receptor,xxx (activity was measured to be less than 2.0 μM)
same,Emax,M4 muscarinic receptor,< 25%
same,M4 Activity,M4 muscarinic receptor,x (activity was measured to be greater than 5.0 μM)
CC(=O)CN1CC2(CCN(C[C@H]3C[C@H]4C=CC3C4)CC2)c2cc(F)ccc21 [compound 877],Emax,M1 muscarinic receptor,25 to 100%
same,M1 Activity,M1 muscarinic receptor,xxx (activity was measured to be less than 2.0 μM)
same,Emax,M4 muscarinic receptor,25 to 100%
same,M4 Activity,M4 muscarinic receptor,xxx (activity was measured to be less than 2.0 μM)
CC(=O)CN1CC2(CCN([C@@H]3C[C@H]4CCC3C4)CC2)c2cc(C)ccc21 [compound 878],Emax,M1 muscarinic receptor,25 to 100%
same,M1 Activity,M1 muscarinic receptor,xxx (activity was measured to be less than 2.0 μM)
same,Emax,M4 muscarinic receptor,25 to 100%
same,M4 Activity,M4 muscarinic receptor,xxx (activity was measured to be less than 2.0 μM)
CCOC(=O)N1CCC(N2CCC3(CC2)CN(c2nccs2)c2ccc(F)cc23)CC1 [compound 879],Emax,M1 muscarinic receptor,25 to 100%
same,M1 Activity,M1 muscarinic receptor,xxx (activity was measured to be less than 2.0 μM)
same,Emax,M4 muscarinic receptor,25 to 100%
same,M4 Activity,M4 muscarinic receptor,xxx (activity was measured to be less than 2.0 μM)
CC(=O)N1CCC(N2CCC3(CC2)CN(C(=O)N(C)C)c2ccc(F)cc23)CC1 [compound 880],Emax,M1 muscarinic receptor,< 25%
same,M1 Activity,M1 muscarinic receptor,x (activity was measured to be greater than 5.0 μM)
same,Emax,M4 muscarinic receptor,< 25%
same,M4 Activity,M4 muscarinic receptor,x (activity was measured to be greater than 5.0 μM)
CC(=O)N[C@H]1CCC2(CCN(C3CCCCCC3)CC2)c2ccccc21 [compound 881],Emax,M1 muscarinic receptor,25 to 100%
same,M1 Activity,M1 muscarinic receptor,xxx (activity was measured to be less than 2.0 μM)
same,Emax,M4 muscarinic receptor,25 to 100%
same,M4 Activity,M4 muscarinic receptor,xxx (activity was measured to be less than 2.0 μM)
CC(=O)N[C@@H]1CCC2(CCN(CC3CCCCC3)CC2)c2ccccc21 [compound 882],Emax,M1 muscarinic receptor,< 25%
same,M1 Activity,M1 muscarinic receptor,x (activity was measured to be greater than 5.0 μM)
same,Emax,M4 muscarinic receptor,< 25%
same,M4 Activity,M4 muscarinic receptor,x (activity was measured to be greater than 5.0 μM)
COCCN1CC2(CCN(C3CC4CCC(C4)C3)CC2)c2cc(F)ccc21 (stereo not shown) [compound 884],Emax,M1 muscarinic receptor,25 to 100%
same,M1 Activity,M1 muscarinic receptor,xxx (activity was measured to be less than 2.0 μM)
same,Emax,M4 muscarinic receptor,25 to 100%
same,M4 Activity,M4 muscarinic receptor,xxx (activity was measured to be less than 2.0 μM)
CN(C)C(=O)N1CC2(CCN(C3CCN(C(=O)OCC(F)F)CC3)CC2)c2cc(F)ccc21 [compound 885],Emax,M1 muscarinic receptor,25 to 100%
same,M1 Activity,M1 muscarinic receptor,xxx (activity was measured to be less than 2.0 μM)
same,Emax,M4 muscarinic receptor,25 to 100%
same,M4 Activity,M4 muscarinic receptor,xxx (activity was measured to be less than 2.0 μM)
CC#CCOC(=O)N1CC[C@@H](CN2CCC3(CC2)CN(C(C)=O)c2ccccc23)C1 [compound 886],Emax,M1 muscarinic receptor,25 to 100%
same,M1 Activity,M1 muscarinic receptor,xxx (activity was measured to be less than 2.0 μM)
same,Emax,M4 muscarinic receptor,25 to 100%
same,M4 Activity,M4 muscarinic receptor,xxx (activity was measured to be less than 2.0 μM)
CN(C)C(=O)N1CC2(CCN(C3CCN(C(=O)c4ccccc4F)CC3)CC2)c2cc(F)ccc21 [compound 887],Emax,M1 muscarinic receptor,25 to 100%
same,M1 Activity,M1 muscarinic receptor,xx (activity was measured to be between 2.0 μM and 5.0 μM)
same,Emax,M4 muscarinic receptor,< 25%
same,M4 Activity,M4 muscarinic receptor,x (activity was measured to be greater than 5.0 μM)
CC(=O)NC1CCC2(CCN(CCC3CCCN(C(=O)N(C)C)C3)CC2)c2ccccc21 (stereo not shown) [compound 888],Emax,M1 muscarinic receptor,25 to 100%
same,M1 Activity,M1 muscarinic receptor,xxx (activity was measured to be less than 2.0 μM)
same,Emax,M4 muscarinic receptor,< 25%
same,M4 Activity,M4 muscarinic receptor,x (activity was measured to be greater than 5.0 μM)
O=C(N[C@H]1CCC2(CCN(CC3CCCCC3)CC2)c2ccccc21)C1CC1 [compound 889],Emax,M1 muscarinic receptor,25 to 100%
same,M1 Activity,M1 muscarinic receptor,xxx (activity was measured to be less than 2.0 μM)
same,Emax,M4 muscarinic receptor,25 to 100%
same,M4 Activity,M4 muscarinic receptor,xxx (activity was measured to be less than 2.0 μM)
CCOC(=O)N1CCC(N2CCC3(CC2)CN(c2ccsc2)c2ccc(F)cc23)CC1 [compound 891],Emax,M1 muscarinic receptor,25 to 100%
same,M1 Activity,M1 muscarinic receptor,xxx (activity was measured to be less than 2.0 μM)
same,Emax,M4 muscarinic receptor,25 to 100%
same,M4 Activity,M4 muscarinic receptor,xxx (activity was measured to be less than 2.0 μM)
CCC(C)(C)C1CCC(N2CCC3(CC2)CN(C(C)=O)c2ccc(F)cc23)CC1 (stereo not shown) [compound 892],Emax,M1 muscarinic receptor,< 25%
same,M1 Activity,M1 muscarinic receptor,x (activity was measured to be greater than 5.0 μM)
same,Emax,M4 muscarinic receptor,< 25%
same,M4 Activity,M4 muscarinic receptor,x (activity was measured to be greater than 5.0 μM)
